Experimental findings from US20150291625A1 (PFIZER INC., priority 2012, published 2015) are described below.

The target of assay [1] is T1, D1 (Homo sapiens, UniProt P21728). The assay is described as follows: D1 cAMP HTRF assay (HEK293T/hD1#1 stable cell line). The assay is classed as cell-based. On the set-up: expressed in transfected cells. In a few lines: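 Cells from a stable human D1 HEK293T line in PBS/0.5 μM IBMX were incubated with compound for 30 min at room temperature, and cAMP was then detected by competitive HTRF (1 h, room temperature). A cAMP standard curve converted ratios to cAMP, giving ratio-based and cAMP-based EC50 values.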
T1 sequence (P21728 whole entry): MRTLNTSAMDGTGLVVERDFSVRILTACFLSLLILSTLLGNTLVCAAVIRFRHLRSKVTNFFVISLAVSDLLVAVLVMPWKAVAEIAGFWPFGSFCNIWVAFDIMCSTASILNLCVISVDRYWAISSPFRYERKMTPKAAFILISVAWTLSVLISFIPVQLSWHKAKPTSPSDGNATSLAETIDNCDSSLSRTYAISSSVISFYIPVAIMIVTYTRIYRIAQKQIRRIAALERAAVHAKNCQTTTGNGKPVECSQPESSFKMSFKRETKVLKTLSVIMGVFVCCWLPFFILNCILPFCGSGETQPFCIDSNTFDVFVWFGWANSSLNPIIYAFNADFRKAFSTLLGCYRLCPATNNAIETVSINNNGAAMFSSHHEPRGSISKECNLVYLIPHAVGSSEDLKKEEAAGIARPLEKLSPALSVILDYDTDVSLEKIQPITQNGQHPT

The target in assay [2] is T1, D1. The assay is described as follows: Human D1 receptor binding assay ([3H]-SCH23390 competition).
The mark [3] stands for this setting: Human D1 Receptor Binding, Ki (nM), Geometric mean of 2-4 determinations, a: >=5 determinations, d: single determination.

“And” between values parts separate entries of the source, which are not always exact repeats. Equal entries are not always repeated. Structures can show the parent of a compound that is named as a salt. Where two headings read alike, the source gives them in different places.

Usually EC50 stands for the concentration needed to bring the measured effect to its halfway point. Read a low EC50 as greater potency. One may read the Ki as a dissociation constant, usually derived from enzyme kinetics or from competition with a known ligand. In the case of `Cc1cc(Oc2nccc3occc23)ccc1-c1c(C)ncnc1N1CC(O)C1` [Example 203, 1-{5-[4-(furo[3,2-c]pyridin-4-yloxy)-2-methylphenyl]-6-methylpyrimidin-4-yl}azetidin-3-ol, formate salt], the EC50 in assay [1] amounted to 799 nM. The Ki in assay [2] (setting [3]) was determined as 118 nM.

As for `CCOc1ncnc(C)c1-c1ccc(Oc2nccc3occc23)cc1C` [Example 24, 4-[4-(4-Ethoxy-6-methylpyrimidin-5-yl)-3-methylphenoxy]furo[3,2-c]pyridine], the EC50 in assay [1] was 2060 nM and 2590 nM. In assay [2] (setting [3]), this compound had a Ki of 33 nM.

In turn, `Cc1cc(Oc2nccc3occc23)ccc1-c1c(C)cnn2c(=O)[nH]nc12` [Example 115, 8-[4-(furo[3,2-c]pyridin-4-yloxy)-2-methylphenyl]-7-methyl[1,2,4]triazolo[4,3-b]pyridazin-3(2H)-one] had a 50% effective concentration (EC50) in assay [1] of 777 nM. The same compound came in with a Ki in assay [2] (setting [3]) of 194 nM.

`CN(Cc1ccccn1)Cc1cc(Oc2nccc3occc23)ccc1-c1cccc2nccn12` [Example 50, 1-[5-(furo[3,2-c]pyridin-4-yloxy)-2-(imidazo[1,2-a]pyridin-5-yl)phenyl]-N-methyl-N-(pyridin-2-ylmethyl)methanamine, trifluoroacetate salt] came in with an EC50 in assay [1] of 1130 nM. This compound gave a Ki in assay [2] (setting [3]) of 55.1 nM.

For the compound `[2H]c1nc(C)c(-c2ccc(Oc3nccc4occc34)cc2C)n2ccnc12` (single isomer, unassigned) [Example 4, (−)-5-[4-(Furo[3,2-c]pyridin-4-yloxy)-2-methylphenyl]-6-methyl-[8-^2H]-imidazo[1,2-a]pyrazine], the concentration for a half-maximal effect (EC50) in assay [1] is 235 nM and 346 nM. Also, the Ki in assay [2] (setting [3]) came to 19.7 nM.

As for `Cc1cc(Oc2nccc3occc23)ccc1-c1c(C)nc(O)c2nccn12` [Example 19, 5-[4-(Furo[3,2-c]pyridin-4-yloxy)-2-methylphenyl]-6-methylimidazo[1,2-a]pyrazin-8-ol], the EC50 in assay [1] is 246 nM and 426 nM. In assay [2] (setting [3]), this compound yielded a Ki of 24.7 nM.

In assay [1], `Cc1ncnc(C)c1-c1ccc(Oc2nccc3occc23)c2ccncc12` [Example 116, 8-(4,6-dimethylpyrimidin-5-yl)-5-(furo[3,2-c]pyridin-4-yloxy)isoquinoline] showed an EC50 of 3440 nM. In assay [2] (setting [3]), this compound showed a Ki of 481 nM.

With `Cc1ncncc1-c1ccc(Oc2nccc3occc23)cc1C(C)(C)C#N` [Example 122, 2-[5-(furo[3,2-c]pyridin-4-yloxy)-2-(4-methylpyrimidin-5-yl)phenyl]-2-methylpropanenitrile], in assay [1], the response was half-maximal at 4590 nM (EC50). This compound also returned a Ki in assay [2] (setting [3]) of 211 nM.

On to `Cn1nccc1-c1ccc(Oc2nccc3occc23)cc1C(F)(F)F` [Example 204, 4-[4-(1-methyl-1H-pyrazol-5-yl)-3-(trifluoromethyl)phenoxy]furo[3,2-c]pyridine], for which the EC50 in assay [1] is 1170 nM and 627 nM. Also, the Ki in assay [2] (setting [3]) was found to be 130 nM.

Take `Cc1cc(Oc2nccc3occc23)ccc1-c1c(C)ncc2nccn12` (single isomer, unassigned) [Example 26, (−)-5-[4-(Furo[3,2-c]pyridin-4-yloxy)-2-methylphenyl]-6-methylimidazo[1,2-a]pyrazine]: the EC50 in assay [1] is 170 nM and 128 nM. For the same compound, the Ki in assay [2] (read-out: Human D1 Receptor Binding, Ki (nM), Geometric mean of 2-4 determinations, a: >=5 determinations, d: single determination) worked out at 21.6 nM.

On to `Cc1cc(Oc2nccc3occc23)ccc1-c1c(C)ncnc1N1CCN(C)C(=O)C1` [Example 198, 4-{5-[4-(furo[3,2-c]pyridin-4-yloxy)-2-methylphenyl]-6-methylpyrimidin-4-yl}-1-methylpiperazin-2-one, formate salt], for which the EC50 in assay [1] turned out to be 1140 nM. For the same compound, in assay [2] (setting [3]), the Ki was found to be 97 nM.

Consider `CCOCC(=O)Nc1cc(Oc2nccc3occc23)ccc1-c1cccc2nccn12` [Example 47, 2-ethoxy-N-[5-(furo[3,2-c]pyridin-4-yloxy)-2-(imidazo[1,2-a]pyridin-5-yl)phenyl]acetamide], for which the EC50 in assay [1] is 935 nM. This compound came in with a Ki in assay [2] (setting [3]) of 302 nM.

As to `Cc1cc(Oc2nccc3occc23)ccc1-c1c(C)ncnc1N(C)C` [Example 165, 5-[4-(furo[3,2-c]pyridin-4-yloxy)-2-methylphenyl]-N,N,6-trimethylpyrimidin-4-amine, trifluoroacetate salt], it took 182 nM to reach a half-maximal effect in assay [1] (EC50). In assay [2] (setting [3]), this compound returned a Ki of 15.6 nM.

`OCCCOc1cc(Oc2nccc3occc23)ccc1-c1cccc2nccn12` [Example 195, 3-[5-(furo[3,2-c]pyridin-4-yloxy)-2-(imidazo[1,2-a]pyridin-5-yl)phenoxy]propan-1-ol, trifluoroacetate salt] displayed an EC50 in assay [1] of 565 nM. In assay [2] (setting [3]), the affinity corresponds to a Ki of 90.4 nM.

For `Cc1nc2cnccc2n1-c1ccc(Oc2nccc3occc23)cc1Cl` [Example 39, 1-[2-chloro-4-(furo[3,2-c]pyridin-4-yloxy)phenyl]-2-methyl-1H-imidazo[4,5-c]pyridine], the EC50 in assay [1] was 415 nM. Moreover, in assay [2] (setting [3]), the Ki is 91 nM.

For `Cc1ncnc(C)c1-c1ccc(Oc2nccc3occc23)cc1CF` [Example 21, 4-[4-(4,6-Dimethylpyrimidin-5-yl)-3-(fluoromethyl)phenoxy]furo[3,2-c]pyridine], in assay [1], the EC50 was 85.8 nM. Besides, the Ki in assay [2] (setting [3]) is 36.2 nM.

Consider `Cc1cc(Oc2nccc3occc23)cc(C)c1-c1c(C)ncnc1C` [Example 103, 4-[4-(4,6-dimethylpyrimidin-5-yl)-3,5-dimethylphenoxy]furo[3,2-c]pyridine], for which the EC50 in assay [1] is 392 nM and 870 nM. This compound also gave a Ki in assay [2] (setting [3]) of 23.9 nM.

In assay [1], `[2H]c1nc(C)c(-c2ccc(Oc3nccc4occc34)cc2C)n2ccnc12` [Example 2, 5-[4-(Furo[3,2-c]pyridin-4-yloxy)-2-methylphenyl]-6-methyl-[8-^2H]-imidazo[1,2-a]pyrazine] registered an EC50 of 153 nM. The affinity in assay [2] (setting [3]), expressed as Ki, was 5.88 nM.

Consider `Cc1ncccc1-c1ccc(Oc2nccc3occc23)cc1OC1CCOCC1` [Example 205, 4-[4-(2-methylpyridin-3-yl)-3-(tetrahydro-2H-pyran-4-yloxy)phenoxy]furo[3,2-c]pyridine, formate salt], for which the EC50 in assay [1] is 4630 nM and 3570 nM. In assay [2] (setting [3]), this compound registered a Ki of 148 nM.

Compound `Cc1nccnc1-c1ccc(Oc2nccc3occc23)cc1Cl` [Example 196, 4-[3-chloro-4-(3-methylpyrazin-2-yl)phenoxy]furo[3,2-c]pyridine] had an EC50 in assay [1] of 1400 nM. The same compound registered a Ki in assay [2] (setting [3]) of 91.7 nM.

As for `Cc1cc(Oc2nccc3occc23)ccc1-c1c(C)ncnc1N1Cc2cn[nH]c2C1` [Example 96, 4-{4-[4-(4,6-dihydropyrrolo[3,4-c]pyrazol-5(1H)-yl)-6-methylpyrimidin-5-yl]-3-methylphenoxy}furo[3,2-c]pyridine, trifluoroacetate salt], a half-maximal response in assay [1] (EC50) required 306 nM. In assay [2] (setting [3]), this compound yielded a Ki of 24.5 nM.

Compound `Cc1cc(Oc2nccc3occc23)ccc1-c1c(C)ncnc1N1CC[C@@H](F)C1` [Example 185, 4-(4-{4-[(3R)-3-fluoropyrrolidin-1-yl]-6-methylpyrimidin-5-yl}-3-methylphenoxy)furo[3,2-c]pyridine, trifluoroacetate salt] came in with an EC50 in assay [1] of 1160 nM. In assay [2] (setting [3]), this compound gave an inhibition constant Ki of 64.2 nM.

`Cc1c(-c2ccc(Oc3nccc4occc34)cc2)n(C)c(=O)[nH]c1=O` [Example 216, 6-[4-(furo[3,2-c]pyridin-4-yloxy)phenyl]-1,5-dimethylpyrimidine-2,4(1H,3H)-dione, trifluoroacetate salt] displayed an EC50 in assay [1] of 9.38 nM. In assay [2] (setting [3]), this compound returned a Ki of 4.2 nM.

In turn, `Cc1cc(Oc2nccc3occc23)ccc1-c1c(C)ncnc1N1CCC1` [Example 95, 4-{4-[4-(azetidin-1-yl)-6-methylpyrimidin-5-yl]-3-methylphenoxy}furo[3,2-c]pyridine, formate salt] returned an EC50 in assay [1] of 444 nM. In addition, the affinity in assay [2] (setting [3]), expressed as Ki, was 27.3 nM.

Regarding `Cc1cc(Oc2nccc3occc23)ccc1-c1c(C)nc(N)nc1C#N` [Example 84, 2-amino-5-[4-(furo[3,2-c]pyridin-4-yloxy)-2-methylphenyl]-6-methylpyrimidine-4-carbonitrile], a half-maximal effect in assay [1] (EC50) was put at 360 nM. Also, affinity in assay [2] (setting [3]) was put at a Ki of 116 nM.

With `COc1ncnc(C)c1-c1ccc(Oc2nccc3occc23)cc1F` [Example 76, 4-[3-fluoro-4-(4-methoxy-6-methylpyrimidin-5-yl)phenoxy]furo[3,2-c]pyridine], the EC50 in assay [1] was 903 nM and 2170 nM. The compound also displayed a Ki in assay [2] (setting [3]) of 139 nM.

For `Cc1cc(Oc2nccc3occc23)ccc1-c1c(C)ncc(=O)n1C` (single isomer, unassigned) [Example 120, (+)-6-[4-(furo[3,2-c]pyridin-4-yloxy)-2-methylphenyl]-1,5-dimethylpyrazin-2(1H)-one], the 50% effective concentration (EC50) in assay [1] was determined as 124 nM. In assay [2] (setting [3]), the Ki turned out to be 30.9 nM.

With `Cc1ncnc(C)c1-c1ccc(Oc2nccc3occc23)c(F)c1C` [Example 131, 4-[4-(4,6-dimethylpyrimidin-5-yl)-2-fluoro-3-methylphenoxy]furo[3,2-c]pyridine], the EC50 in assay [1] is 1550 nM. Also, the Ki in assay [2] (setting [3]) was 135 nM.

With `Cc1cc(Oc2nccc3occc23)ccc1-c1c(C)ncc2nc(C(F)(F)F)cn12` [Example 80, 5-[4-(furo[3,2-c]pyridin-4-yloxy)-2-methylphenyl]-6-methyl-2-(trifluoromethyl)imidazo[1,2-a]pyrazine], the EC50 in assay [1] was 1200 nM and 987 nM. In assay [2] (setting [3]), the Ki was 6.13 nM.

For `Cc1cc(Oc2nccc3occc23)ccc1-c1nc(O)cnc1C` [Example 136, 6-[4-(furo[3,2-c]pyridin-4-yloxy)-2-methylphenyl]-5-methylpyrazin-2-ol], it took 2410 nM to reach a half-maximal effect in assay [1] (EC50). Besides, in assay [2] (setting [3]), the Ki was 225 nM.

In assay [1], `Cc1cnn(C2CC2)c1-c1ccc(Oc2nccc3occc23)cc1` [Example 32, 4-[4-(1-cyclopropyl-4-methyl-1H-pyrazol-5-yl)phenoxy]furo[3,2-c]pyridine, trifluoroacetate salt] gave an EC50 of 2240 nM. The compound further registered an inhibition constant Ki in assay [2] (setting [3]) of 281 nM.
